From patent US20210084904A1, “SUCCINATE DEHYDROGENASE INHIBITORS AND SULFUR-CONTAINING COMPOUNDS MIXTURES AND METHODS OF USE THEREOF” (University of Georgia Research Foundation, Inc., priority 2019, published 2021)

Tested on: Cercosporidium personatum
Test: Greenhouse test: efficacy on peanut late leaf spot, foliar spray
Type: in vivo
Conditions: leaves sprayed, infected peanut plants
Procedure: The following greenhouse test was conducted Sep. 14, 2019. Peanut plants (Arachis hypogaea) were used in the test as the crop plant. The peanut plants were infected Cercosporidium personatum.
Leaves were sprayed with inpyfluxam, chlorothalonil, benzovindiflupyr, prothioconazole, and/or sulfur at the rates disclosed in Table 1. All data was analyzed for significance.

## N#Cc1c(Cl)c(Cl)c(Cl)c(C#N)c1Cl [Chlorothalonil, chlorothalonil]
Application rate 24.0 ounces/acre
  % Control: 27.5c %

## OC(Cc1ccccc1Cl)(Cn1nc[nH]c1=S)C1(Cl)CC1 (centres unmarked) [Prothioconazole, prothioconazole]
Application rate 7.0 ounces/acre
  % Control: 10.0d %

## inpyrfluxam
Application rate 2.0 ounces/acre
  % Control: 32.5b %
Application rate 3.0 ounces/acre
  % Control: 31.3bc %
Application rate 4.0 ounces/acre
  % Control: 30.0bc %
